In patent US11464783B2, “Heterocyclic compounds” (Aligos Therapeutics, Inc., priority 2019, dated 2022):

tested on: HBV; assay: HBV-DNA Antiviral Assay Using HepG2.117 Cells; assay type: cell-based; conditions: Hepatitis B virus, HepG2.117, 96 h, intracellular HBV DNA by qPCR, day 4
Experimental: The following assay procedure describes the HBV antiviral assay, using HepG2.117 cells, which carry a stably integrated genotype D HBV genome under the control of a Tet-off promoter, and intracellular HBV DNA quantification as endpoint. Cell viability is assessed in parallel by measuring the intracellular ATP content using ATPlite (Perkin Elmer).
On day 0, HepG2.117 cells (which are maintained in routine cell culture with doxycycline present in the medium at a final concentration of 1 μg/mL) were seeded in 96-well plates (white with clear bottom) at a density of 2.0×10^4 cells/well (0.1 mL/well) in medium without doxycycline to induce pgRNA transcription and subsequent formation of HBV particles. The cells were incubated at 37° C. and 5% CO2.
On day 1, medium was removed from each well, the test articles were diluted in culture medium without doxcycyline and 100 μL was added to cell culture wells (9 concentrations, 4-fold dilution). For each plate, 6 untreated (merely DMSO) wells were included. The final concentration of DMSO in the culture medium was 2%. Each plate was prepared in duplicate (one for HBV DNA extraction, one for ATPlite measurement). The cells were incubated at 37° C. and 5% CO2 for 3 days.
On day 4, cell viability was assessed using ATPlite and cell lysates were prepared for HBV DNA extraction and subsequent quantification by qPCR.
Medium was removed from each well and 100 μL of 0.33% NP-40 in H2O was added to each well. Plates were sealed, incubated at 4° C. for 5 mins, vortexed extensively and centrifuged briefly. Next, 35 μL of lysate was added to 65 μL QuickExtract DNA Extraction Solution (Epicentre) in a PCR plate for each well. PCR plate was incubated at 65° C. for 6 mins, 98° C. for 2 mins and finally cooled to 4° C. HBV DNA was then quantified by qPCR with HBV-specific primers and probes as specified in Table 2 using the Bio-Rad SSOAdvanced Universal Probes Supermix on a CFX96 machine (Bio-Rad). The PCR cycle program consisted of 95° C. for 3 mins, followed by 40 cycles at 95° C. for 10 sec and 60° C. for 30 sec.
A DNA standard was prepared by dilution of an IDT gBlock corresponding to the amplicon with concentrations ranging from 10^2 to 10^8 copies/input (i.e. per 4 μL) and used to generate a standard curve by plotting Cq values vs. HBV DNA standard concentration. The quantity of HBV DNA in each sample was determined by interpolating from the standard curve.
Cell viability was calculated as follows: % Cell viability=(luminescence value of test sample)/(average luminescence value of 2% DMSO control)×100%. HBV DNA inhibition was calculated as follows: 100−(HBV DNA copy number of test sample)/(average HBV DNA copy number of 2% DMSO control)×100%. No normalization to entecavir was required due to the excellent dynamic window of this assay. The CC50, EC so and EC90 values were determined by dose-response curves fitted by GraphPad Prism using “log (agonist) vs. response—Variable slope”.

Structure (SMILES)	EC50 [nM]
N=S1(=O)CCN(C(=O)Nc2ccc(F)c(Cl)c2)CC1c1cccs1 (centres unmarked) [Compound 17, N-(3-chloro-4-fluoro-phenyl)-1-imino-1-oxo-2-(2-thienyl)-1,4-thiazinane-4-carboxamide]	500 to 5000
C[C@@H](c1cnc([C@@]2(F)CN(C(=O)c3ccc(Br)c(C#N)c3)CCS2(=O)=O)s1)c1ccccc1F [Compound 43a]	≤ 100
C[C@@H](c1cnc([C@]2(F)CN(C(=O)c3ccc(Br)c(C#N)c3)CCS2(=O)=O)s1)c1ccccc1F [Compound 43c]	500 to 5000
O=C(c1cc(F)cc(Cl)c1)N1CCS(=O)(=O)C(c2cccs2)C1 (centres unmarked) [Compound 13a, (3-chloro-5-fluoro-phenyl)-[1,1-dioxo-2-(2-thienyl)-1,4-thiazinan-4-yl]methanone]	500 to 5000
C[C@@H](c1ccccc1)c1cnc([C@@]2(F)CN(C(=O)c3ccc(Br)c(Cl)c3)CCS2(=O)=O)s1 [Compound 41b]	≤ 100
N#Cc1cc(C(=O)N2CCS(=O)(=O)[C@@](F)(c3ncc(Cc4ccccc4-c4ncccn4)s3)C2)ccc1Br [Compound 45a]	≤ 100
O=C(c1ccc(Br)c(Cl)c1)N1CCS(=O)(=O)C(c2nc(Cc3ccccc3)cs2)C1 (centres unmarked) [Compound 31, (2-(4-benzylthiazol-2-yl)-1,1-dioxidothiomorpholino)(4-bromo-3-chlorophenyl)methanone]	100 to 500
O=C(c1ccc(Br)c(Cl)c1)N1CCS(=O)(=O)[C@](F)(c2ncc(Cc3ccccc3)s2)C1 [Compound 37a, (4-bromo-3-chloro-phenyl)-[(2S)-2-(5-benzylthiazol-2-yl)-2-fluoro-1,1-dioxo-1,4-thiazinan-4-yl]methanone]	≤ 100
C[C@@H]1CS(=O)(=O)[C@@H](c2cccs2)CN1C(=O)c1ccc(Br)c(Cl)c1 [Compound 25, (4-bromo-3-chloro-phenyl)-[(2R,5R)-5-methyl-1,1-dioxo-2-(2-thienyl)-1,4-thiazinan-4-yl]methanone]	500 to 5000
O=C(c1ccc(Br)c(Cl)c1)N1CCS(=O)(=O)[C@@](F)(c2ncc(Cc3ccccc3)o2)C1 [Compound 46a, (R)-(2-(5-benzyloxazol-2-yl)-2-fluoro-1,1-dioxidothiomorpholino)(4-bromo-3-chlorophenyl)methanone]	≤ 100
Cc1cnc(C2CN(C(=O)c3ccc(Br)c(Cl)c3)CCS2(=O)=O)s1 (centres unmarked) [Compound 29, (4-bromo-3-chloro-phenyl)-[2-(5-methylthiazol-2-yl)-1,1-dioxo-1,4-thiazinan-4-yl]methanone]	≤ 100
O=C(c1ccc(Br)c(Cl)c1)N1CCS(=O)(=O)[C@](F)(C(=O)NCc2ccccc2)C1 [Compound 35a]	≤ 100
O=C(c1ccc(Br)c(Cl)c1)N1CCS(=O)(=O)C(c2ncc(Cc3ccccc3)s2)C1 (centres unmarked) [Compound 30, (2-(5-benzylthiazol-2-yl)-1,1-dioxidothiomorpholino)(4-bromo-3-chlorophenyl)methanone]	100 to 500
O=C(c1ccc(Cl)c(Cl)c1)N1CCS(=O)(=O)C(c2nccs2)C1 (centres unmarked) [Compound 32]	500 to 5000
CC1(c2nccs2)CN(C(=O)c2ccc(Br)c(Cl)c2)CCS1(=O)=O (centres unmarked) [Compound 34]	500 to 5000
COc1ccc(Cc2cnc([C@]3(F)CN(C(=O)c4ccc(Br)c(Cl)c4)CCS3(=O)=O)s2)c(OC)c1 [Compound 49a]	500 to 5000
O=C(c1ccc(Br)c(Cl)c1)N1CCS(=O)(=O)[C@@](F)(C(=O)NCCc2ccccc2)C1 [Compound 38b]	500 to 5000
O=C(c1ccc(Br)c(Cl)c1)N1CCS(=O)(=O)[C@@](F)(c2ncc(Cc3ccccc3)s2)C1 [Compound 37b, (4-bromo-3-chloro-phenyl)-[(2R)-2-(5-benzylthiazol-2-yl)-2-fluoro-1,1-dioxo-1,4-thiazinan-4-yl]methanone]	500 to 5000
O=C(c1ccc(Br)c(Cl)c1)N1CCS(=O)(=O)[C@@](F)(C(=O)NCc2ccccc2)C1 [Compound 35b]	500 to 5000

same assay, conditions: intracellular HBV DNA by qPCR, day 4

Structure (SMILES)	EC50 [nM]
CC1(c2ncc(Cc3ccccc3)s2)CN(C(=O)c2ccc(Br)c(Cl)c2)CCS1(=O)=O (racemic) [Compound 36a, (4-bromo-3-chloro-phenyl)-[rac-(2S)-2-(5-benzylthiazol-2-yl)-2-methyl-1,1-dioxo-1,4-thiazinan-4-yl]methanone]	500 to 5000
C[C@H]1CS(=O)(=O)[C@](F)(c2ncc(Cc3ccccc3)s2)CN1C(=O)c1ccc(Br)c(Cl)c1 (stereo in doubt) [Compound 48a, (4-bromo-3-chloro-phenyl)-[(rac-2S,5S)-2-(5-benzylthiazol-2-yl)-2-fluoro-5-methyl-1,1-dioxo-1,4-thiazinan-4-yl]methanone]	100 to 500
O=C(Nc1ccc(F)c(Cl)c1)N1CCS(=O)(=O)C(c2ccccc2)C1 (single isomer, unassigned) [Compound 18b, N-(3-chloro-4-fluoro-phenyl)-1, l-dioxo-2-phenyl-1,4-thiazinane-4-carboxamide]	> 5000
Cc1cc(Cl)ccc1C(=O)N1CCS(=O)(=O)C(c2cccs2)C1 (single isomer, unassigned) [Compound 12b, (4-chloro-2-methyl-phenyl)-[1,1-dioxo-2-(2-thienyl)-1,4-thiazinan-4-yl]methanone]	500 to 5000
C[C@@H](c1cnc(C2(F)CN(C(=O)c3ccc(Br)c(Cl)c3)CCS2(=O)=O)s1)c1ccccc1F (mixture of isomers) [Compound 42c, (rac-2S)-4-(4-bromo-3-chlorobenzoyl)-2-fluoro-2-[5-[(rac-1R)-1-(2-fluorophenyl)ethyl]-1,3-thiazol-2-yl]-1λ^6-thiomorpholine-1,1-dione]	> 5000
C[C@@H]1CS(=O)(=O)[C@@](F)(c2ncc(Cc3ccccc3)s2)CN1C(=O)c1ccc(Br)c(Cl)c1 (stereo in doubt) [Compound 47b, (4-bromo-3-chloro-phenyl)-[(rac-2R,5R)-2-(5-benzylthiazol-2-yl)-2-fluoro-5-methyl-1,1-dioxo-1,4-thiazinan-4-yl]methanone]	≤ 100
O=C(c1ccc(Br)c(Cl)c1)N1CCS(=O)(=O)C(c2ccccc2)C1 (single isomer, unassigned) [Compound 19b, (4-bromo-3-chloro-phenyl)-(1,1-dioxo-2-phenyl-1,4-thiazinan-4-yl)methanone]	500 to 5000
O=C(c1ccc(Br)c(Cl)c1)N1CCS(=O)(=O)C(F)(c2ncc(Cc3ccccc3-c3ncccn3)s2)C1 (racemic) [Compound 44b, (rac-2S)-4-(4-bromo-3-chlorobenzoyl)-2-fluoro-2-(5-[[2-(pyrimidin-2-yl)phenyl]methyl]-1,3-thiazol-2-yl)-1λ^6-thiomorpholine-1,1-dione]	500 to 5000
C[C@H]1CS(=O)(=O)[C@@](F)(c2ncc(Cc3ccccc3)s2)CN1C(=O)c1ccc(Br)c(Cl)c1 (stereo in doubt) [Compound 48b, (4-bromo-3-chloro-phenyl)-[(rac-2R,5S)-2-(5-benzylthiazol-2-yl)-2-fluoro-5-methyl-1,1-dioxo-1,4-thiazinan-4-yl]methanone]	100 to 500
C[C@H](c1cnc(C2(F)CN(C(=O)c3ccc(Br)c(Cl)c3)CCS2(=O)=O)s1)c1ccccc1F (mixture of isomers) [Compound 42b, (rac-2R)-4-(4-bromo-3-chlorobenzoyl)-2-fluoro-2-[5-[(rac-1S)-1-(2-fluorophenyl)ethyl]-1,3-thiazol-2-yl]-1λ^6-thiomorpholine-1,1-dione]	≤ 100
